Results taken from article PMC7274539, “The selective glucocorticoid receptor antagonist CORT125281 has tissue-specific activity” (The Journal of Endocrinology, 2020).

Tests used:
GR [1] = tested on: GR; parameters: method as in Lahteenmaki et al. 1987, Kroon et al. 2018; settings: half maximal inhibitory concentration of the GR antagonist; ref Lahteenmaki et al. 1987, Kroon et al. 2018; cited from earlier work
HPA-axis activity = tested on: HPA-axis activity; parameters: method as in Kroon et al. 2018; settings: chronic administration via the food; ref Kroon et al. 2018; cited from earlier work
androgen receptor = settings: ref Jung-Testas & Baulieu 1983, Gaillard et al. 1984, Kloosterboer et al. 1995, Kroon et al. 2018; cited from earlier work
male C57Bl/6J mice = experiment: Subchronic corticosterone exposure (pellet): body composition, organ weights, leukocytes, plasma insulin, glucose, lipids; assay type: in vivo
Method: (§1) All studies involving animals were approved by the institutional ethics committee on animal care and experimentation at the Leiden University Medical Center. The 8-week old male C57Bl/6J mice (Charles River) were housed in ventilated cages with a 12 h light:12 h darkness regime and ad libitum access to food and water. In the acute corticosterone exposure experiments, mice received a synthetic chow diet (Research Diets, New Brunswick, NJ, USA) containing vehicle or CORT125281 (6, 20 or 60 mg/kg/day, Corcept Therapeutics, Menlo Park, CA, USA) for 6 days. […] Mice were treated daily with vehicle, 60 mg/kg mifepristone (Corcept Therapeutics) or 60 mg/kg CORT125281 (dissolved in PBS with 0.1% Tween 80 and 0.5% hydroxypropylmethylcellullose, Corcept Therapeutics) via oral gavage for 5 days, after which mice were killed by CO2 inhalation. Throughout the experiment, body weight was monitored and body composition was determined with EchoMRI™ (Frankfurt, Germany). After 5 days, blood was collected from the lateral tail vain in paraoxon-coated capillaries after a 6-h fast. Plasma triglyceride, total cholesterol, free fatty acid, glucose and insulin levels were determined using commercially available kits (Roche; Instruchemie, Delfzijl, Netherlands and Crystal Chem, Zaandam, Netherlands). Blood concentrations of the major leukocyte classes, that is, lymphocytes, monocytes and eosinophils, were determined in whole blood using an automatic veterinary hematology analysis (Sysmex XT-2000iV; Goffin Meyvis, Etten-Leur, the Netherlands).
(§2) In both acute and subchronic corticosterone experiments, relevant tissues (including quadriceps muscle, interscapular BAT, gonadal white adipose tissue (WAT), adrenals, spleen, thymus, pituitary and hippocampus) were collected to determine tissue weight and/or for further molecular analysis.

GR [2] = settings: mifepristone; ref Havel et al. 1996, van den Heuvel et al. 2016, Kroon et al. 2018; cited from earlier work
progesterone receptor = tested on: progesterone receptor; parameters: method as in earlier work; settings: ref Jung-Testas & Baulieu 1983, Gaillard et al. 1984, Kloosterboer et al. 1995, Kroon et al. 2018; cited from earlier work
[3] = target: T1, human GR ligand-binding domain (Homo sapiens, UniProt P04150); experiment: MARCoNI peptide interaction profiling (coregulator-nuclear receptor interaction); assay type: biochemical; settings: for interactions at a number of motifs (dexamethasone-exclusive cluster): 1 µM; for ligand-induced interaction at the majority of coregulator motifs: cortisol 1 µM, dexamethasone 1 µM
T1 construct: purchased Invitrogen PV4689
T1 sequence (P04150 524-758 limits assumed): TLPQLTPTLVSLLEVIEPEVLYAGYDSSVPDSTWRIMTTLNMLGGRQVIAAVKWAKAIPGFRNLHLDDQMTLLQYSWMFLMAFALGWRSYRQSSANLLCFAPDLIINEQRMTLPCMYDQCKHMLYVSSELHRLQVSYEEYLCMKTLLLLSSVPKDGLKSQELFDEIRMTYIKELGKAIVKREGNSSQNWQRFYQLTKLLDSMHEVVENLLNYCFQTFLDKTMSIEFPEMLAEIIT
Method: As the assay utilizes human GR, experiments were performed with cortisol rather than corticosterone. […] Incubation was performed at 20°C in a PamStation96 (PamGene International, Den Bosch, Netherlands) for 40 min. Receptor binding to each peptide on the array, reflected by a fluorescent signal, was quantified by analysis of .tiff images using BioNavigator software (PamGene International).

[4] = tested on: GR transcriptional activity; experiment: Subchronic corticosterone exposure: RT-qPCR of GR and insulin target genes in tissues; assay type: in vivo, C57Bl/6J mice
Method: as §1, §2
(§3) Total RNA was isolated from snap-frozen tissues using TriPure isolation reagent (Roche). After reverse transcription to cDNA (Promega), RT-qPCR was performed using IQ SYBR-Green supermix and MyIQ thermal cycler (Bio-RAD CFX96). Primers were tested for high efficiency (90–110%) and for amplification of a single PCR product. All primer sequences are listed in Supplementary Table 1 (see section on supplementary materials given at the end of this article), with the exception of Ncor1 and Ncor2 which were purchased from Qiagen. Fold change expression was calculated using the 2^−ΔΔ^CT method.

[5] = tested on: GR transcriptional activity; experiment: Acute corticosterone exposure or basal conditions: RT-qPCR of GR target genes in tissues; assay type: in vivo, C57Bl/6J mice; settings: corticosterone 1.5 mg/kg s.c., 1 h; liver, muscle, BAT, WAT, hippocampus; except Sgk1 in muscle, hippocampus and Mt2a in hippocampus
Method: as §1, §2, §3

[6] = corticosterone pellet 5 days, 60 mg/kg/day oral gavage
[7] = mifepristone 0.1 µM, CORT125281 1 µM
[8] = corticosterone pellet 12.5 mg, 5 days, no antagonist

CC#C[C@]1(O)CC[C@H]2[C@@H]3CCC4=CC(=O)CCC4=C3[C@@H](c3ccc(N(C)C)cc3)C[C@@]21C [mifepristone]
IC50 (GR [1]): 43 nM
endogenous corticosterone levels (HPA-axis activity): suppressed
activity at the androgen receptor (androgen receptor): antagonizes
HOMA-IR (male C57Bl/6J mice; [6]): improved
corticosterone-induced decrease of spleen weight (male C57Bl/6J mice; [6]): prevented
corticosterone-induced fat mass (male C57Bl/6J mice; [6]): non-significantly reduced
corticosterone-induced hyperlipidaemia (plasma triglycerides, total cholesterol) (male C57Bl/6J mice; [6]): seemed to modestly reduce
corticosterone-induced immune suppression (total white blood cells, lymphocytes, monocytes, eosinophils) (male C57Bl/6J mice; [6]): fully prevented
free fatty acid levels (male C57Bl/6J mice; [6]): did not affect
glucose levels (male C57Bl/6J mice; [6]): improved
lean mass (reduced by corticosterone) (male C57Bl/6J mice; [6]): not altered
corticosterone-induced hyperinsulinemia (male C57Bl/6J mice; corticosterone pellet 5 days, 60 mg/kg/day oral gavage, 6-h fast): fully prevented
partial agonism at GR (GR [2]): partial agonistic properties
activity at the progesterone receptor (progesterone receptor): antagonizes
binding of corepressor motifs of NCOR1 and NCOR2 (SMRT) by ligand-GR complex [3, 7]: strongly bound
basal mRNA expression of some GR target genes (Gilz in liver, muscle and BAT; Mt2a in BAT) ([4]; 60 mg/kg/day oral gavage 5 days, sham pellet): reduced
corticosterone-induced expression of GR target genes (Fkbp5, Gilz, Sgk1, Mt2a) ([4]; corticosterone pellet 5 days, 60 mg/kg/day oral gavage, liver, muscle, BAT, WAT, hippocampus): effectively prevented

C[C@]12CCC(=O)C=C1CC[C@@H]1[C@@H]2[C@@H](O)C[C@@]2(C)[C@H]1CC[C@]2(O)C(=O)CO [cortisol]
interactions at a number of motifs (dexamethasone-exclusive cluster) [3]: without effect
ligand-induced interaction at the majority of coregulator motifs [3, 7]: induced motif binding

C[C@@H]1C[C@H]2[C@@H]3CCC4=CC(=O)C=C[C@]4(C)[C@@]3(F)[C@@H](O)C[C@]2(C)[C@@]1(O)C(=O)CO [dexamethasone]
interactions at a number of motifs (dexamethasone-exclusive cluster) [3]: induced substantial interactions
ligand-induced interaction at the majority of coregulator motifs [3, 7]: induced motif binding

C[C@]12C[C@H](O)[C@H]3[C@@H](CCC4=CC(=O)CC[C@@]43C)[C@@H]1CC[C@@H]2C(=O)CO [corticosterone]
expression of GR target genes Fkbp5, Gilz, Sgk1, Mt2a after corticosterone injection [5]: upregulated expression of all GR target genes
fat mass under subchronic corticosterone exposure (male C57Bl/6J mice; [8]): increase
lean mass under subchronic corticosterone exposure (male C57Bl/6J mice; [8]): reduced
plasma insulin under subchronic corticosterone exposure (male C57Bl/6J mice; [8]): induced hyperinsulinemia
spleen weight under subchronic corticosterone exposure (male C57Bl/6J mice; [8]): decreased
Eosinophil count (male C57Bl/6J mice; corticosterone pellet 5 days, no antagonist): Not detected
